Laboratory results as given in patent publication US20040232089A1, “Biocidal compounds for treating water” (VANETTA S.p.A., priority 2003, published 2004).

Tests used:
[1] = Hydrolysis test carried out in the dark; format: physicochemical
Source text: From the hydrolysis test carried out in the dark, MNB and MPB appear to be readily degradable at a pH compatible with environmental conditions.

[2] = Photo-degradability under daylight and UV; format: physicochemical; settings: 10 ppm in drinking water (pH 6,5-7,5)
Description: Similarly, the same behaviour is confirmed when evaluating the photo-degradability under daylight and UV (the irradiation test is carried out on a solution of 10 ppm in drinking water (pH 6,5-7,5)).

[3] = Biodegradability OECD 301 A (92/69/EEC C4-A); settings: 7 days after the beginning of the test
Description: In fact, based on data available with respect to the most similar compounds to the menadione derivatives disclosed herein, one would expect a degradability in the range of 0% (percentage calculated based on the initial mass expressed in mg/l) typical of menadione (2-methyl-1,4-naphthalenedione) and 17% (assessed after 28 days) typical of menadione sodium bisulphite (which calculation was performed in accordance with the guidelines OECD301 A attached to directive EEC 92/69/EEC C4-A).
Finally biodegradability was also evaluated according to standard 92/69/EEC C4-A. From the data, both MNB and MPB result to have a remarkably better biodegradability than 2-methyl-1,4-naphthalenedione and particularly than MSB.

[4] = Source text: As reminded often, the water solubility is an essential feature for the candidate biocide to be used successfully in the biological control of water.

SMILES | ½ LIFE (hydrolysis) ([1]; pH 6, 8, in the dark) [h] | ½ LIFE (hydrolysis) ([1]; pH 9, in the dark) [h] | Light exp. Tot Degr. [2] [h] | degradability relative to that of MSB [3] | Sol. in H2O [4] | Light exp. ½ life [2] [h]
O=C1C=CC(=O)c2c(O)cccc21 [Juglone, 5-hydroxy-1,4-naphthalenedione, reference compound] | >288 | 15 | 48 |  |  | 
CC1(S(=O)(=O)O)CC(=O)c2ccccc2C1=O.Cc1cc(C)[nH]c(=O)n1 (centres unmarked) [MPB, menadione dimethylpyrimidinole bisulphite] | 48 | <3 | 48 | eight | 10 gr/l | 10
CC1=CC(=O)c2ccccc2C1=O [Menadione, 2-methyl-1,4-naphthalenedione, reference compound] | 1500 | 550 | >5000 |  | ins. | 1500
